Test results: US5145872A, “Peptides with pharmaceutical activity” (Zambon Group, S.p.A., priority 1988, dated 1992)
Values joined by “and” are separate entries in the source; they are usually repeats but may differ in a detail not shown here. Identical values can stand only once. “Also recorded” adds a separate entry of the source.

How the values were obtained:
[1] = system: methionine-enkephalin-induced analgesia; experiment: Potentiation of methionine-enkephalin-induced analgesia (hot plate test), product given i.c.v.; assay type: in vivo, Male Swiss mice; conditions: for Reaction time areas, Product Met-enk: product 0.16 μmoles i.c.v. together with Met-enk i.c.v., hot plate; for Reaction time areas, Product: product alone, 0.16 μmoles i.c.v., hot plate 51.5° C., 3-15 min
Method: (§1) Male Swiss mice (CD Charles River) weighing 22-24 g received intracerebroventricular (i.c.v.) injection of methionineenkephalin as described by Haley and Mc Cormick [Br. J. Pharmacol., 12, 12-15, (1957)].
(§2) Methionine-enkephalin was dissolved in distilled water and microinjected in a volume of 10 μl/mouse and in a dose analgesic in less than 30% of animals. The dose (10.25 or 50 μg/mouse) was chosen at the beginning of each experience depending on each batch's analgesic activity.
(§3) The antinociceptive effect was tested by the hot plate test as described by Eddy and Leimbach [(J. Pharmacol. Exptl. Therap., 107, 385-393, (1953)]. The time in seconds from contact with the plate (51.5° C.) to paw licking or Jumping accurrence was recorded as the response latency.
(§4) Animals were removed as soon as they reacted or after 30 seconds if they at 3, 6, 9, 12 and 15 minutes after the i.c.v. treatment and the latency times measured were used to calculate the reaction time areas. At first the compounds of formula I and Bestatin were administered simultaneously to methionine-enkephalin (dissolved in the same solution) by intracerebroventricular treatment to evaluate their activity without any interference due to absorbtion or diffusion through the blood-brain barrier.

[2] = system: methionine-enkephalin-induced analgesia; experiment: Potentiation of methionine-enkephalin-induced analgesia (hot plate test), product given i.v.; assay type: in vivo, Male Swiss mice; conditions: for Reaction time areas, Product: product alone
Method: as §1, §2, §3, §4
Then the compounds of formula I and Bestatin were tested after intravenous (i.v.) administration to study their diffusion across blood-brain barrier.
The administration i.v. of the compounds of formula I and of Bestatin was simultaneous to methionine-enkephalin administration i.c.v.

[3] = product 0.05 mmoles/kg i.v. simultaneous to Met-enk i.c.v.
[4] = product 0.08 mmoles/kg i.v. simultaneous to Met-enk i.c.v.

For `CC(C)C[C@H](NC(=O)[C@@H](O)[C@H](N)Cc1ccccc1)C(=O)O` [Bestatin, [(2S,3R)-3-amino-2-hydroxy-4-phenyl-butanoyl]-L-leucine], the “Reaction time areas, Product Met-enk” value [1] was 268 ± 11.3, the “Reaction time areas, Product” value [1] was 222 ± 13.3 and the “Activity of enhancing analgesia induced by opioids when administered by intravenous route” value ([2]; intravenous route, in words) was “practically inactive; also recorded: not active”. For the same compound, the “Reaction time areas, Product Met-enk” value [2, 3] was 202 ± 6.9, the “Reaction time areas, Product Met-enk” value [2, 4] was 212 ± 10.0 and the “Reaction time areas, Product” value ([2]; 0.05 mmoles/kg i.v.) was 173 ± 3.7. For the same compound, the “Reaction time areas, Product” value ([2]; 0.08 mmoles/kg i.v.) was 182 ± 8.3.

With `CS(=O)(=O)c1ccc(C[C@@H](N)[C@H](O)C(=O)NC2(C(=O)O)CCCC2)cc1` [Compound 2, 1-[(2S,3R)-3-amino-2-hydroxy-4-(4-methylsulfonyl-phenyl)-butanoyl]-amino-1-cyclopentanecarboxylic acid] the “Reaction time areas, Product Met-enk” value [2, 3] was 243 ± 15.9, the “Reaction time areas, Product Met-enk” value [2, 4] was 233 ± 10.1 and the “Reaction time areas, Product” value ([2]; 0.05 mmoles/kg i.v.) was 190 ± 7.8. The “Reaction time areas, Product” value ([2]; 0.08 mmoles/kg i.v.) was 191 ± 8.5.

In the case of `CS(=O)(=O)c1ccc(C[C@@H](N)[C@H](O)C(=O)NC2(C(=O)O)CCC2)cc1` [Compound 4, 1-[(2S,3R)-3-amino-2-hydroxy-4-(4-methylsulfonyl-phenyl)-butanoyl]-amino-1-cyclobutanecarboxylic acid], the “Reaction time areas, Product Met-enk” value [1] is reported as 290 ± 17.1 and the “Reaction time areas, Product” value [1] is reported as 179 ± 9.9.

For Methionine-enkephalin [Met-enk], the “Reaction time areas, Met-enk” value ([1]; Met-enk alone i.c.v., control group of each Table 1 experiment) was 207 ± 15.6 and 173 ± 11.2 and 188 ± 4.7 and the “Reaction time areas, Met-enk” value ([2]; Met-enk alone i.c.v., control group of each Table 2 experiment) was 199 ± 14.0 and 197 ± 16.7 and 208 ± 8.3 and 200 ± 6.1 and 197 ± 9.7.
